Reference: US20110250632A1 (priority 2008, published 2011)

Tested on: adenylate cyclase
Experiment: cAMP assay of cryopreserved AD293 cells, forskolin stimulation
Type: cell-based, human
From the text: As a control, rise in intracellular cAMP concentrations was also separately monitored when the ubiquitously expressed adenylate cyclase activity was challenged with its respective agonist forskolin. In the AD293 cell line only the adenylate cyclase activity was monitored.
As the DiscoveRx assay systems are designed to monitor intracellular cAMP concentrations the assay medium is supplemented with the general phosphodiesterase inhibitor isobutylmethylxanthine (IBMX) at a final concentration of 1 mM.
Forskolin assay—Forskolin (Sigma F6886-10 mg) was dissolved in DMSO to a stock concentration of 10 mM. This was then serially diluted using half-log dilutions to generate a final forskolin concentration range in the assay medium ranging from 316 μM-3.16 nM.
DiscoveRx HITHUNTER™ cAMP II assay—This was performed according to the manufacturer's instructions and briefly involved the following. On resurrection from storage at −140° C., cells frozen on cell culture treated 96-well plates were allowed to thaw. On defrosting the cryopreservation medium was removed and the cells washed twice with PBS. […]
Typically for an assay performed in a 96-well cell culture treated plate 20,000 cells were used. […] The assay plates were incubated at room temperature for 4 hrs and the cAMP concentration determined by monitoring the generation of the luminescent signal using the LEADSEEKER™ Instrument platform.

Structure (SMILES): C=C[C@@]1(C)CC(=O)[C@]2(O)[C@@]3(C)[C@@H](O)CCC(C)(C)[C@@H]3[C@H](O)[C@H](OC(C)=O)[C@@]2(C)O1 [forskolin, Forskolin]
- S:B (minus poly lysine): 2.5
- S:B (plus poly-lysine): 3.0
